One test addresses T1, BTK-GFP (Homo sapiens, UniProt Q06187+Q96SW2).
T1 construct: the BTK open reading frame (ORF) was first shuttled from a pcDNA-DEST40-BTK vector (Invitrogen library ID INV_20090504v1); expressed in transfected cells; host or cells: HEK293A cells (Invitrogen R70507), lentiviral transduction with pLenti6-BTK-GFP-Ires-RFP, blasticidin-selected
The experiment in a line: BTK-GFP protein abundance flow cytometry assay in HEK293A cells. The note with it: 24 h; for BTK deg Amax %: % protein remaining at concentration of maximum degradation; for DC50: concentration at which 50% maximal degradation was observed. In kind it is cell-based. Put shortly:
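HEK293A cells stably expressing BTK-GFP-iresRFP treated 24 h at 37° C with 10-point 1:3 dilutions from 10 μM (0.1% DMSO), in duplicate. Median GFP of 5,000 single cells by flow cytometry, normalized to GFP-negative iresRFP cells (0%) and DMSO (100%); DC50 from concentration-response curves.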
On the technique in general: Flow cytometry measures light scatter and fluorescence of single cells or particles in a stream.

The next test relates to OCI-LY3 cells. The experiment in a line: Resazurin cell viability assay in DLBCL cells (OCI-LY3). In kind it is cell-based. The note with it: Homo sapiens, OCI-Ly3, 72 h, OCI-LY3 cells (BTK independent), 50% growth inhibition, read-out: OCI-LY3 Prol GI50. Summed up: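 BTK-independent OCI-LY3 cells were treated 72 h at 37° C/5% CO2 with an 8-point 1:4 series from 10 μM, in triplicate, versus DMSO. Viability was read by resazurin (13 μg/ml final, 2 h) fluorescence at 530/600 nm. GI50 was curve-fitted, typically from ≥2 independent experiments.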
A general note: Resazurin is reduced to fluorescent resorufin, in cell work by metabolically active cells.

Each structure is given as a SMILES string. Bounds are passed on as bounds.

What is called DC50 is the concentration giving 50% degradation. High values mean degradation only at high concentration, low ones degradation at low concentration. Broadly, the GI50 is the concentration giving 50% growth inhibition.

T1 sequence (Q06187 whole entry): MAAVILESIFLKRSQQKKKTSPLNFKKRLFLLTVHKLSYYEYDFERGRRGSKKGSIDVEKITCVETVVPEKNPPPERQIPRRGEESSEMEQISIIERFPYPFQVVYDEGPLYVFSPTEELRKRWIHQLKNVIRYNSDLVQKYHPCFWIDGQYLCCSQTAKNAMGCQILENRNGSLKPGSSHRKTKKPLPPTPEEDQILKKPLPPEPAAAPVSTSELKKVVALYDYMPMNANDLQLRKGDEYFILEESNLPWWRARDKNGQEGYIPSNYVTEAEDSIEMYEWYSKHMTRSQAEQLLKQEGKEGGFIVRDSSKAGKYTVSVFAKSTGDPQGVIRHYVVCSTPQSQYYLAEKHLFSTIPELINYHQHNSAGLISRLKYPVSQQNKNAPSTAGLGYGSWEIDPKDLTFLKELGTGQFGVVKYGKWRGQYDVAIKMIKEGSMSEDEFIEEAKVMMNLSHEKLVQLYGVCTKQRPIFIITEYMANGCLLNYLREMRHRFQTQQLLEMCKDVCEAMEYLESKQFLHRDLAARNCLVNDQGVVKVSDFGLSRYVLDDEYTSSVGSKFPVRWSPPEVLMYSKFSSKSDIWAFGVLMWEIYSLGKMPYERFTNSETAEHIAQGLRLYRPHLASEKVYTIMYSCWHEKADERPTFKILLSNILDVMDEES
T1 sequence (Q96SW2 whole entry): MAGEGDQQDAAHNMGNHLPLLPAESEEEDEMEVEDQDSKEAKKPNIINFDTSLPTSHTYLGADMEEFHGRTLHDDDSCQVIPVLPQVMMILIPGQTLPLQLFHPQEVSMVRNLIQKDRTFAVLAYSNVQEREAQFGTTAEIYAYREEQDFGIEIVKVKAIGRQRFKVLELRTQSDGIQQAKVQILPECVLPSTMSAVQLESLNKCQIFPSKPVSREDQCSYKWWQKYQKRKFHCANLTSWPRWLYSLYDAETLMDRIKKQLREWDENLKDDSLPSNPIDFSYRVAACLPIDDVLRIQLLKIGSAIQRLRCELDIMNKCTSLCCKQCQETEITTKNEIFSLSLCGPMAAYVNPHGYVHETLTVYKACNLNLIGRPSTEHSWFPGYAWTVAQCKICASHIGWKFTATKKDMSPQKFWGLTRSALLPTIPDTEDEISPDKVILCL
T1 sequence (Q16531 whole entry partner): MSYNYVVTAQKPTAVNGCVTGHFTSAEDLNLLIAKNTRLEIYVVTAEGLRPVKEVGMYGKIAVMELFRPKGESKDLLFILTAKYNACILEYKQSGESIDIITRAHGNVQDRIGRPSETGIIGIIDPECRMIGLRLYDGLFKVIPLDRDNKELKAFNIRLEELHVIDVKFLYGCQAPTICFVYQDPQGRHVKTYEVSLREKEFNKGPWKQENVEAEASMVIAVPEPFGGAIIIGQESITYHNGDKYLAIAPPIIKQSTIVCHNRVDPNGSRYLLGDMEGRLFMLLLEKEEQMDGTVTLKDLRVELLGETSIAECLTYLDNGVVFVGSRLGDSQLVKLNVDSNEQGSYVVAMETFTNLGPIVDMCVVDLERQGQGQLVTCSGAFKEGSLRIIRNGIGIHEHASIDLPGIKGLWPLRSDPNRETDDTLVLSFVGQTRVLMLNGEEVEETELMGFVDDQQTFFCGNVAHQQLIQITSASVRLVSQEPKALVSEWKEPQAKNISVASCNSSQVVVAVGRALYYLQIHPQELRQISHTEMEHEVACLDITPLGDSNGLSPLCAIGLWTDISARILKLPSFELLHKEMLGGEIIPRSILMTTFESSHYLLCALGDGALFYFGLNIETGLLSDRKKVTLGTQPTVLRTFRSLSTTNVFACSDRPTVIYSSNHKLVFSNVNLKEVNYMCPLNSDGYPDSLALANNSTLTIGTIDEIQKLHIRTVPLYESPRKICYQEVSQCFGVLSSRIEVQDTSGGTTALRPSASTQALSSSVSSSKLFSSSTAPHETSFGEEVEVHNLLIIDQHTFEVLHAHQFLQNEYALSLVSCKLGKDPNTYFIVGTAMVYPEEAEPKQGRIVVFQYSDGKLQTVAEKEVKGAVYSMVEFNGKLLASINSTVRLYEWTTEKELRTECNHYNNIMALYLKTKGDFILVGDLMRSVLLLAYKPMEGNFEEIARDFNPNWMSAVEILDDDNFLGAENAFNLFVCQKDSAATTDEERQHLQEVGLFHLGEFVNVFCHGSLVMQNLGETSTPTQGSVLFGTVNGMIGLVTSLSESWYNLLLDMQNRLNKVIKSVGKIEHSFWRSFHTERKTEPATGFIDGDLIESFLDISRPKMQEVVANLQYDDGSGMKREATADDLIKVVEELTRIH

With `COc1ccc(C(=O)N2CCC3(CCN(CCc4ccc(-c5cc6c(-c7cc(F)cc(NC(=O)N8C[C@H](CC(C)C)[C@@H](O)C8)c7C)ncnc6[nH]5)cc4)CC3)CC2)cc1N1CCC(=O)NC1=O` [Compound 15, (3R,4S)—N-(3-(6-(4-(2-(9-(3-(2,4-Dioxotetrahydropyrimidin-1(2H)-yl)-4-methoxybenzoyl)-3,9-diazaspiro[5.5]undecan-3-yl)ethyl)phenyl)-7H-pyrrolo[2,3-d]pyrimidin-4-yl)-5-fluoro-2-methylphenyl)-3-hydroxy-4-isobutylpyrrolidine-1-carboxamide], at BTK-GFP, the “BTK deg Amax %” value worked out at 4% and it took 0.0018 µM to reach half-maximal degradation (DC50). For the same molecule, the GI50 in the test with OCI-LY3 cells was 7.25 µM.

In the case of `COc1ccc(C(=O)N2CCC3(CCN(CCc4ccc(-c5cc6c(-c7cc(F)cc(NC(=O)N8C[C@@H](CC(C)C)[C@H](O)C8)c7C)ncnc6[nH]5)cc4)CC3)CC2)cc1N1CCC(=O)NC1=O` [Compound 19, (3S,4R)—N-(3-(6-(4-(2-(9-(3-(2,4-dioxotetrahydropyrimidin-1(2H)-yl)-4-methoxybenzoyl)-3,9-diazaspiro[5.5]undecan-3-yl)ethyl)phenyl)-7H-pyrrolo[2,3-d]pyrimidin-4-yl)-5-fluoro-2-methylphenyl)-3-hydroxy-4-isobutylpyrrolidine-1-carboxamide], on BTK-GFP, the “BTK deg Amax %” value was found to be 13% and the DC50 was found to be 0.0855 µM. For the same molecule, the GI50 in the test on OCI-LY3 cells is above 10 µM.

Consider `COc1ccc(C(=O)N2CCC(CCN3CCC(OCc4ccc(-c5cc6c(-c7cc(F)cc(NC(=O)N8C[C@H](CC(C)C)[C@@H](O)C8)c7C)ncnc6[nH]5)cc4)CC3)CC2)cc1N1CCC(=O)NC1=O` [Compound 22, (3R,4S)—N-(3-(6-(4-(((1-(2-(1-(3-(2,4-Dioxotetrahydropyrimidin-1 (2H)-yl)-4-methoxybenzoyl)piperidin-4-yl)ethyl)piperidin-4-yl)oxy)methyl)phenyl)-7H-pyrrolo[2,3-d]pyrimidin-4-yl)-5-fluoro-2-methylphenyl)-3-hydroxy-4-isobutylpyrrolidine-1-carboxamide], for which, on BTK-GFP, the “BTK deg Amax %” value is on record as 1.4% and the DC50 is 0.0014 µM. Further, the 50% growth inhibitory concentration (GI50) in the test on OCI-LY3 cells was determined as 6.68 µM.

For the origin of these results see patent publication US11541056B2, “3-hydroxy-N-(3-(7H-pyrrolo[2,3-d]pyrimidin-4-yl)phenyl)pyrrolidine-1-carboxamide derivatives” (NOVARTIS AG, priority 2018, dated 2023).
